Reference: paper PMC6277198, “Molecular basis for activation of lecithin:cholesterol acyltransferase by a compound that increases HDL cholesterol” (eLife, 2018)
Entries after “also recorded” stand apart in the source; their conditions may differ.

Legend:
WT LCAT = molecular target: T1, WT LCAT (Homo sapiens, UniProt P04180); assay: Bio-layer interferometry, LCAT binding to ApoA-I HDLs; conditions: 10 μM compound 1
T1 sequence (P04180 25-440): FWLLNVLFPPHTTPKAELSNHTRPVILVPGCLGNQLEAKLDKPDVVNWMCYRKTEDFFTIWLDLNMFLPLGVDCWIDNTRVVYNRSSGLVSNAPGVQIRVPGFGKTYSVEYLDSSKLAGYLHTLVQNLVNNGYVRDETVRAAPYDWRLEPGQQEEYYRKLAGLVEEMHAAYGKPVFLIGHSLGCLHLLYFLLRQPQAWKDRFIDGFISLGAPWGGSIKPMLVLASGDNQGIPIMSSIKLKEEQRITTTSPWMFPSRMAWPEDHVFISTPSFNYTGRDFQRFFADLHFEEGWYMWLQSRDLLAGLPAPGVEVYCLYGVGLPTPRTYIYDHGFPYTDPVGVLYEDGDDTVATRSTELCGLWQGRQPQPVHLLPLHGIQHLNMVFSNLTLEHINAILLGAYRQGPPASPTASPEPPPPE
Experimental: A FortéBio Octet RED system was used to measure the binding of LCAT to ApoA-I HDLs. HDLs were prepared with 1,2-dipalmitoyl-sn-glycero-3-phosphocholine (DPPC), 1-palmitoyl-2-oleoyl-sn-glycero-3-phosphocholine (POPC), and 16:0 biotinyl Cap PE in a ratio of 49.5:49.5:1 ([Manthei et al., 2017]). HDLs were diluted 1/20 in assay buffer (1X PBS pH 7.4, 1 mM EDTA, 60 µM fatty acid free bovine serum albumin) and then immobilized on streptavidin tips for 600 s, followed by a wash in assay buffer for 600 s to remove unbound HDLs. The tips were then moved to buffer containing DMSO or compound 1 and allowed to equilibrate for 120 s before a baseline was established for 30 s. […] In order to determine Kd values, the kobs (from association) were determined at each concentration for the fast phase and then plotted against LCAT concentration. The slope of the line was evaluated as kon using the equation kobs = kon[LCAT]+koff and the resultant Kd = koff/kon. For statistical analysis, the kon, koff, and Kd for each replicate was determined individually and the results were compared to WT using a one-way analysis of variance followed by Tukey’s multiple comparisons post-test in GraphPad Prism.

LCAT [1] = molecular target: T2, LCAT (Homo sapiens, UniProt P04180); assay: Soluble esterase assay (pNPB); assay type: biochemical; conditions: WT LCAT
T2 construct: hydrolysis of 4-methylumbelliferyl palmitate (MUP) by full-length LCAT; made in house; host or cells: HEK293F (transient transfection, secreted)
T2 sequence (P04180 25-440): T1 sequence (P04180 25-440)
Experimental: (§1) The esterase assay was performed as previously described ([Glukhova et al., 2015]) at least in triplicate. pNPB was diluted to 10 mM into reaction buffer containing 10% dimethylsulfoxide. The reaction was started by addition of 40 μL 1 μM LCAT containing either 3.2% DMSO or 11.1 μM compound 1 to 10 μL of pNPB. The increase in absorbance at 400 nm was monitored on a Spectramax plate reader for 15 min. Significance was determined using a one-way analysis of variance followed by Tukey’s multiple comparisons post-test in GraphPad Prism.

LCAT [2] = assay: Soluble esterase assay (pNPB); assay type: biochemical, human; conditions: any variant of LCAT
Experimental: as §1

- Effect on pNPB esterase activity of WT (LCAT [1]): seemed to inhibit
- Stimulation of pNPB esterase activity (LCAT [2]): did not stimulate
Structure (SMILES): N#Cc1cnc(N2CCC(c3n[nH]c4c3C(O)(C(F)(F)F)CC(=O)N4)CC2)cc1C(F)(F)F (stereo not drawn) [compound 1, 6-(4-(4-Hydroxy-6-oxo-4-(trifluoromethyl)−4,5,6,7-tetrahydro-1H-pyrazolo[3,4-b]pyridin-3-yl)piperidin-1-yl)−4-(trifluoromethyl)nicotinonitrile]
- Effect on LCAT binding to HDL (kon, koff, Kd) in BLI (WT LCAT): does not affect; also recorded: no change
